Tests used:
human cytomegalovirus = assay: in vitro antiviral evaluation (cytotoxicity and viral cytopathic effect, CPE) in MRC-5 cells; assay type: cell-based; conditions: racemate approximately 50:50 (w/w) of 1-9 and 2-9
Method: The compounds prepared in Examples 1 and 2 were evaluated in vitro as antiviral agents against human cytomegalovirus.
One herpes virus strain employed was Strain McCrae of type 1 herpes (thymidine kinase positive virus) (HSV-1TK^+). This strain was prepared and titered in MA-104 cells and frozen at -90° C. until use. Also used were strain HF (HSV-1TK^-), strain E194 (HSV-2), NJB strain (MCMV), and strain AD169 (HCMV).
Continuous passaged MRC-5 cells obtained from the American Type Culture Collection (Bethesda, Md.) were used for testing of herpes-type virus, with growth medium consisting of Minimum Essential Medium (MEM) supplemented with 0.1% NaHCO3 and […] gentamicin.
To a 96 well microtiter plate containing an established 24 hour monolayer of cells from which the medium has been decanted was added 0.1 mL of varying (one-half log10) concentrations of test compound, which incubated on the cell 15 minutes, after which 0.1 mL of virus in a concentration of 320 cell culture 50% infectious doses (CCID50)/0.1 mL was added. The plate was covered with plastic wrap and incubated at 37° C. The cells were examined microscopically after 72 hours for evidence of cytotoxicity and for viral cytopathic effect (CPE).

several herpes viruses = assay: activity of isolated enantiomer against several herpes viruses (general statement); assay type: cell-based

Nc1nc2c(ncn2CO[C@@H](CO)CCP(=O)(O)O)c(=O)[nH]1 [Compound 2-9, 9-[(R(-)-1-Hydroxymethyl-3-phosphono)-propyl-oxymethyl]guanine]
share of the antiviral activity of the racemate due to the enantiomer (conclusion in words) (human cytomegalovirus): majority of the antiviral activity of the racemate is due to the (R) enantiomer | activity against several herpes viruses (in words) (several herpes viruses): significant activity against several herpes viruses

Reference: patent US5532225A, “Acyclic purine phosphonate nucleotide analogs as antiviral agents, and related synthetic methods” (SRI International, priority 1992, dated 1996)
